Assay results reported in US11767322B2 (BRISTOL-MYERS SQUIBB COMPANY, priority 2020, dated 2023).
Read-outs that look alike come from different tables or passages of the source. Blank lines part the entries; values can stand above or below the molecule they belong to.

Key:
[1] = biological target: GST-tagged PIK3Cδ in complex with PIK3R1 (Homo sapiens, UniProt O00329); assay: PI3Kδ HTRF binding assay; conditions: HTRF probe displacement, 1 h at rt; read-out: PIK3CD IC50
[2] = tested on: MLKL phosphorylation in HT29-L23 human colorectal adenocarcinoma cells; assay: MLKL phosphorylation high-content assay; type: cell-based
[3] = biological target: T1, His-GST-TVMV-hRIPK1(1-324) (Homo sapiens, UniProt Q13546); assay: biochemical; type: binding; conditions: HTRF probe displacement, 1 h at rt; read-out: RIPK1 IC50
T1 construct: The coding region of human RIPK1(1-324) flanked by NdeI site at 5′ end; made in house; host or cells: Spodoptera frugiperda Sf9 insect cells (baculovirus, Bac-to-Bac)
T1 sequence (Q13546 1-324): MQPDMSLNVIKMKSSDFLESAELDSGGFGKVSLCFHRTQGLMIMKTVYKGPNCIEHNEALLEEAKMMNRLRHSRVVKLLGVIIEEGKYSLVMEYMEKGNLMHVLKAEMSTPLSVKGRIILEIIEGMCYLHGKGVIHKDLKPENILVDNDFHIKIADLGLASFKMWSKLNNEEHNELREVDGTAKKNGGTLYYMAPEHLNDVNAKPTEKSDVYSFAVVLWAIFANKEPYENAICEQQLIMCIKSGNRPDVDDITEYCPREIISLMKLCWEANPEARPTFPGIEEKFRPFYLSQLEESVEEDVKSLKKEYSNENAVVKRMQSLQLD

[4] = HT29-L23 cells, necroptosis induced with TNFα, SMAC mimetic and Z-VAD, 6 h, maximal inhibition defined by Nec1s, read-out: pMLKL IC50
[5] = Table 22, compounds of the present invention, read-out: pMLKL IC50
[6] = Homo sapiens, 6 h, read-out: pMLKL IC50, HT29-L23 cells, necroptosis induced with TNFα, SMAC mimetic and Z-VAD, 6 h, maximal inhibition defined by Nec1s

GST-tagged PIK3Cδ in complex with PIK3R1, sequence (O00329 whole entry): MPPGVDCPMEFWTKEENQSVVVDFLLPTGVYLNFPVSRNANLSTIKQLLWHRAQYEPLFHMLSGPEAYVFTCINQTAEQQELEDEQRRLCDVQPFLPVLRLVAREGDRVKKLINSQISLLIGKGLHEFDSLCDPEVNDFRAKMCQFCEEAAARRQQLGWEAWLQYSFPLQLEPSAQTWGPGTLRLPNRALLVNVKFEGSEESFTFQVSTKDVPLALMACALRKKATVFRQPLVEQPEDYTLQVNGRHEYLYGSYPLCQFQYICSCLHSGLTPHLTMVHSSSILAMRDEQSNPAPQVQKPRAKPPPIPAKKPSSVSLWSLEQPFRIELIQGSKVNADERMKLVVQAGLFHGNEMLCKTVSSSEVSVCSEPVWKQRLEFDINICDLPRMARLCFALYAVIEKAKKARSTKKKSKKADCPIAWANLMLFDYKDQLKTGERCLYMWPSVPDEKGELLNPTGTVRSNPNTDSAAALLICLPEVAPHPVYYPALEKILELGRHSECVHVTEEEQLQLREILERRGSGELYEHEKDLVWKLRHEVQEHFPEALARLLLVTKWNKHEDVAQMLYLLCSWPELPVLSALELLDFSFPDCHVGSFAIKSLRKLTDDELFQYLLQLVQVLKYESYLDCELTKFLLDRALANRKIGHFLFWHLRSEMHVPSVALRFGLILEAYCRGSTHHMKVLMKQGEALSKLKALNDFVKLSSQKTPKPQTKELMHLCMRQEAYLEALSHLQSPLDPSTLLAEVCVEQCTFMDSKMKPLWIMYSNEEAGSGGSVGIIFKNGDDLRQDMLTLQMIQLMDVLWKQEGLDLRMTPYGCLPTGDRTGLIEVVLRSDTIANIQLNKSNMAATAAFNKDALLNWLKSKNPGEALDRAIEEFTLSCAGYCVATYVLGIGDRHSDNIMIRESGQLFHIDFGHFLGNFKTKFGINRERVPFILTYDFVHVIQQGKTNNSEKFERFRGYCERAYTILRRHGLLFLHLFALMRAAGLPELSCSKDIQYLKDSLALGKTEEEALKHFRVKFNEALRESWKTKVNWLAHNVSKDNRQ
GST-tagged PIK3Cδ in complex with PIK3R1, sequence (P27986 whole entry partner): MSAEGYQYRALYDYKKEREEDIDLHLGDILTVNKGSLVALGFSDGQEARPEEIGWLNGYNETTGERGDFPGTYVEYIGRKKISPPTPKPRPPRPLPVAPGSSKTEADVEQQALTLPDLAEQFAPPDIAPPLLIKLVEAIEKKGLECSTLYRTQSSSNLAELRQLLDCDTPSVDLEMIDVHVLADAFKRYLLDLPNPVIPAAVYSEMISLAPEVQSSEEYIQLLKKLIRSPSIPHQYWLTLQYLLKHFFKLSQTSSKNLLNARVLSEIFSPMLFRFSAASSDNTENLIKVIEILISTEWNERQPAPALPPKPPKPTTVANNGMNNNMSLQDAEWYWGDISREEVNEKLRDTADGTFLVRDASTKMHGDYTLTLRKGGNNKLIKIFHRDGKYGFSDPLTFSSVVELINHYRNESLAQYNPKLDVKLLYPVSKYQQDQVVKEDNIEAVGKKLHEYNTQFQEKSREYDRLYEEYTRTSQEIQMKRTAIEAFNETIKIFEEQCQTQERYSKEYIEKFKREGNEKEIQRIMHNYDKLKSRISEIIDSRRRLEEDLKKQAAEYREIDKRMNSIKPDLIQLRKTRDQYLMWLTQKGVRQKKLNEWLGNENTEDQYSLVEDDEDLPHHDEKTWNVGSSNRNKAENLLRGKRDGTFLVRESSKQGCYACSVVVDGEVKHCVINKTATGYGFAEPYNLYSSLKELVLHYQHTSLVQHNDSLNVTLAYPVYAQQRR

IC50 [2, 5]: 7.7 nM
IC50 [1]: > 15000 nM
Molecule: Cc1ccc(-c2ccn3nc(N)nc3c2)c(F)c1C(=O)NC(C)CC(O)c1ccc(Cl)cc1 (racemic) [Example 19, 3-(2-amino-[1,2,4]triazolo[1,5-a]pyridin-7-yl)-N-[4-(4-chlorophenyl)-4-hydroxybutan-2-yl]-2-fluoro-6-methylbenzamide]
IC50 [2, 4]: 7.7 nM

IC50 [1]: > 15000 nM
Molecule: Cc1c(C(=O)NC(CF)CC(O)c2ccc(Cl)cc2)cc(-c2ccn3nc(N)nc3c2)c(F)c1F (racemic) [Example 102, 5-(2-amino-[1,2,4]triazolo[1,5-a]pyridin-7-yl)-N-(4-(4-chlorophenyl)-1-fluoro-4-hydroxybutan-2-yl)-3,4-difluoro-2-methylbenzamide]
IC50 [2, 4]: 7.6 nM

IC50 [1]: > 15000 nM
Molecule: Cc1c(C(=O)NC(CF)CC(O)c2ccc(Cl)cc2)cc(-c2ccn3nc(N)nc3c2)c(F)c1F (racemic) [Example 103, 5-(2-amino-[1,2,4]triazolo[1,5-a]pyridin-7-yl)-N-(4-(4-chlorophenyl)-1-fluoro-4-hydroxybutan-2-yl)-3,4-difluoro-2-methylbenzamide]
IC50 [2, 4]: 2060 nM

IC50 [1]: > 15000 nM
Molecule: Cc1ccc(-c2ccn3nc(N)nc3c2)c(F)c1C(=O)NC(CF)CC(O)c1ccc(Cl)cc1 (single isomer, unassigned) [Example 23, 3-(2-amino-[1,2,4]triazolo[1,5-a]pyridin-7-yl)-N-(4-(4-chlorophenyl)-1-fluoro-4-hydroxybutan-2-yl)-2-fluoro-6-methylbenzamide]

IC50 [1]: > 15000 nM
Molecule: Cc1ccc(-c2ccn3nc(N)nc3c2)c(F)c1C(=O)NC(CF)CC(O)c1ccc(Cl)cc1 (single isomer, unassigned) [Example 24, 3-(2-amino-[1,2,4]triazolo[1,5-a]pyridin-7-yl)-N-(4-(4-chlorophenyl)-1-fluoro-4-hydroxybutan-2-yl)-2-fluoro-6-methylbenzamide]

IC50 [1]: > 15000 nM
Molecule: Cc1ccc(-c2ccn3nc(N)nc3c2)c(F)c1C(=O)NCCC(O)c1ccc(Cl)cn1 (single isomer, unassigned) [Example 47, 3-(2-amino-[1,2,4]triazolo[1,5-a]pyridin-7-yl)-N-(3-(5-chloropyridin-2-yl)-3-hydroxypropyl)-2-fluoro-6-methylbenzamide]

IC50 [1]: > 15000 nM
Molecule: Cc1ccc(-c2ccn3nc(N)nc3c2)c(F)c1C(=O)NC[C@H](F)[C@@H](O)c1ccc(Cl)cc1 (single isomer, unassigned) [Example 302]

IC50 [1]: > 15000 nM
Molecule: Cc1ccc(-c2ccn3nc(N)nc3c2)c(F)c1C(=O)NC[C@@H](F)[C@H](O)c1ccc(Cl)cc1 (single isomer, unassigned) [Example 303]

IC50 [1]: > 15000 nM
Molecule: Cc1ccc(-c2ccn3nc(N)nc3c2)c(F)c1C(=O)NCC(F)(F)C(O)C1CC(F)(F)C1 (stereo not drawn) [Example 258, 3-(2-amino-[1,2,4]triazolo[1,5-a]pyridin-7-yl)-N-(3-(3,3-difluorocyclobutyl)-2,2-difluoro-3-hydroxypropyl)-2-fluoro-6-methylbenzamide]

IC50 [1]: > 15000 nM
Molecule: Cc1ccc(-c2ccn3nc(N)nc3c2)c(F)c1C(=O)NCC(F)(F)C(O)C1CC(F)(F)C1 (stereo not drawn) [Example 259, 3-(2-amino-[1,2,4]triazolo[1,5-a]pyridin-7-yl)-N-(3-(3,3-difluorocyclobutyl)-2,2-difluoro-3-hydroxypropyl)-2-fluoro-6-methylbenzamide]

Further lines, the molecule ahead of its results:

Molecule: Cc1cc(F)c(-c2ccn3nc(N)nc3c2)cc1C(=O)NCCC(O)c1ccc(C(F)(F)F)cc1 (racemic) [Example 2, 5-(2-amino-[1,2,4]triazolo[1,5-a]pyridin-7-yl)-4-fluoro-N-(3-hydroxy-3-(4-(trifluoromethyl)phenyl)propyl)-2-methylbenzamide]
IC50 [1]: > 15000 nM

Molecule: Cc1ccc(-c2ccn3nc(N)nc3c2)c(F)c1C(=O)NC(C)CC(O)c1ccc(Cl)cc1 (racemic) [Example 20, 3-(2-amino-[1,2,4]triazolo[1,5-a]pyridin-7-yl)-N-[4-(4-chlorophenyl)-4-hydroxybutan-2-yl]-2-fluoro-6-methylbenzamide]
IC50 [2, 4]: 3.6 nM
IC50 [2, 5]: 3.6 nM
IC50 [1]: > 15000 nM

Molecule: Cc1c(C(=O)NC(C)CC(O)c2ccc(Cl)cc2)cc(-c2ccn3nc(N)nc3c2)c(F)c1F (racemic) [Example 100, 5-(2-amino-[1,2,4]triazolo[1,5-a]pyridin-7-yl)-N-(4-(4-chlorophenyl)-4-hydroxybutan-2-yl)-3,4-difluoro-2-methylbenzamide]
IC50 ([2]; read-out: pMLKL IC50, HT29-L23 cells, necroptosis induced with TNFα, SMAC mimetic and Z-VAD, 6 h, maximal inhibition defined by Nec1s): 27 nM
IC50 [1]: > 15000 nM

Molecule: Cc1cc(F)c(-c2ccn3nc(N)nc3c2)cc1C(=O)NCCC(O)c1ccc(C(F)(F)F)cc1 (single isomer, unassigned) [Example 3, 5-(2-amino-[1,2,4]triazolo[1,5-a]pyridin-7-yl)-4-fluoro-N-(3-hydroxy-3-(4-(trifluoromethyl)phenyl)propyl)-2-methylbenzamide]
IC50 [1]: > 15000 nM

Molecule: Cc1ccc(-c2ccn3nc(N)nc3c2)c(F)c1C(=O)NCC(F)(F)C(O)c1ccc(Cl)c(Cl)c1 (single isomer, unassigned) [Example 112, 3-{2-amino-[1,2,4]triazolo[1,5-a]pyridin-7-yl}-N-[3-(3,4-dichlorophenyl)-2,2-difluoro-3-hydroxypropyl]-2-fluoro-6-methylbenzamide]
IC50 [1]: > 15000 nM

Molecule: Cc1ccc(-c2ccn3nc(N)nc3c2)c(F)c1C(=O)NCC(F)(F)C(O)c1ccc(Cl)c(Cl)c1 (single isomer, unassigned) [Example 113, 3-{2-amino-[1,2,4]triazolo[1,5-a]pyridin-7-yl}-N-[3-(3,4-dichlorophenyl)-2,2-difluoro-3-hydroxypropyl]-2-fluoro-6-methylbenzamide]
IC50 [1]: > 15000 nM

Molecule: Cc1ccc(-c2ccn3nc(N)nc3c2)c(F)c1C(=O)NCC(F)(F)[C@@H](OC(N)=O)c1ccc(F)cc1 [Example 276, (S)-3-(3-(2-amino-[1,2,4]triazolo[1,5-a]pyridin-7-yl)-2-fluoro-6-methylbenzamido)-2,2-difluoro-1-(4-fluorophenyl)propyl carbamate]
IC50 [3]: 3.7 nM
IC50 [2, 6]: 8.4 nM

Molecule: Nc1nc2cc(-c3ccc(OC(F)F)c(C(=O)NCC(F)(F)[C@@H](O)c4ccc(F)cc4)c3F)ccn2n1 [Example 306, (S)-3-(2-amino-[1,2,4]triazolo[1,5-a]pyridin-7-yl)-N-(2,2-difluoro-3-(4-fluorophenyl)-3-hydroxypropyl)-6-(difluoromethoxy)-2-fluorobenzamide]
IC50 [3]: 11 nM
IC50 [2, 6]: 4.2 nM

Molecule: Nc1nc2cc(-c3ccc(C(F)(F)F)c(C(=O)NCC(F)(F)[C@@H](O)c4ccc(F)cc4)c3F)ccn2n1 [Example 315, (S)-3-(2-amino-[1,2,4]triazolo[1,5-a]pyridin-7-yl)-N-(2,2-difluoro-3-(4-fluorophenyl)-3-hydroxypropyl)-2-fluoro-6-(trifluoromethyl)benzamide]
IC50 [3]: 6.9 nM
IC50 [2, 6]: 0.4 nM

Molecule: Cc1ccc(-c2ccn3nc(N)nc3c2C)c(F)c1C(=O)NCC[C@H](O)c1ccc(Cl)cc1 [compound 134]
IC50 [3]: 2.9 nM
IC50 [2, 6]: 1.5 nM

Molecule: (R)-3-(2-amino-[1,2,4]triazolo[1,5-a]pyridin-7-yl)-6-cyclopropyl-N-(2,2-difluoro-3-(4-fluorophenyl)-3-hydroxypropyl)-2-fluorobenzamide [Example 305]
IC50 [3]: 1.6 nM
IC50 [2, 4]: 0.6 nM
